ChEMBL document CHEMBL1201862, “PubChem BioAssay data set” (2004)
Active and inactive are the calls of the source.

Assays:
[1] = biological target: T1, Heat shock factor protein 1 (Mus musculus, UniProt P38532); assay: enhancement of HSF1-driven luciferase signal – cell-based, NIH3T3, luminescence, dose retest, confirmation (AID 435004); type: functional;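 note: stress induced by proteasome inhibitor MG132 added 30 min after compound; luciferase reporter driven by HSF1 response element in NIH3T3 cells; actives raise luminescence as potentiators of the MG132 stress response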
T1 sequence (P38532 whole entry): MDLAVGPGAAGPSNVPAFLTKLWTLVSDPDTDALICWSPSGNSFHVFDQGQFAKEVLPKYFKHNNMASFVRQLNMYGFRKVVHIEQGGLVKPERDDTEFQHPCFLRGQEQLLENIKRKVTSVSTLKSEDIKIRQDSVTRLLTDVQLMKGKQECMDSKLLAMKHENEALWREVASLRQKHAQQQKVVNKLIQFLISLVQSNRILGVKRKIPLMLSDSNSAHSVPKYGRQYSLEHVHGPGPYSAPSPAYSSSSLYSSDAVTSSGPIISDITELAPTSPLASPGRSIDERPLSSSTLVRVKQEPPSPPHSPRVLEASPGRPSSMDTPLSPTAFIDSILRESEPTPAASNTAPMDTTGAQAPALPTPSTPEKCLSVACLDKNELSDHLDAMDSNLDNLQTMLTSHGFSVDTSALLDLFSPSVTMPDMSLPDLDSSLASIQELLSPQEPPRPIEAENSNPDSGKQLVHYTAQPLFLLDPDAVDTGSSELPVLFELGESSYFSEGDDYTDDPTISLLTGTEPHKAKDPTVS

[2] = biological target: T2, Replicative DNA helicase DnaB (Mycobacterium tuberculosis, UniProt P9WMR3); assay: DnaB intein splicing inhibitors, dose response, biochemical, cell-free fluorescence (AID 449749); type: functional
T2 sequence (P9WMR3 whole entry): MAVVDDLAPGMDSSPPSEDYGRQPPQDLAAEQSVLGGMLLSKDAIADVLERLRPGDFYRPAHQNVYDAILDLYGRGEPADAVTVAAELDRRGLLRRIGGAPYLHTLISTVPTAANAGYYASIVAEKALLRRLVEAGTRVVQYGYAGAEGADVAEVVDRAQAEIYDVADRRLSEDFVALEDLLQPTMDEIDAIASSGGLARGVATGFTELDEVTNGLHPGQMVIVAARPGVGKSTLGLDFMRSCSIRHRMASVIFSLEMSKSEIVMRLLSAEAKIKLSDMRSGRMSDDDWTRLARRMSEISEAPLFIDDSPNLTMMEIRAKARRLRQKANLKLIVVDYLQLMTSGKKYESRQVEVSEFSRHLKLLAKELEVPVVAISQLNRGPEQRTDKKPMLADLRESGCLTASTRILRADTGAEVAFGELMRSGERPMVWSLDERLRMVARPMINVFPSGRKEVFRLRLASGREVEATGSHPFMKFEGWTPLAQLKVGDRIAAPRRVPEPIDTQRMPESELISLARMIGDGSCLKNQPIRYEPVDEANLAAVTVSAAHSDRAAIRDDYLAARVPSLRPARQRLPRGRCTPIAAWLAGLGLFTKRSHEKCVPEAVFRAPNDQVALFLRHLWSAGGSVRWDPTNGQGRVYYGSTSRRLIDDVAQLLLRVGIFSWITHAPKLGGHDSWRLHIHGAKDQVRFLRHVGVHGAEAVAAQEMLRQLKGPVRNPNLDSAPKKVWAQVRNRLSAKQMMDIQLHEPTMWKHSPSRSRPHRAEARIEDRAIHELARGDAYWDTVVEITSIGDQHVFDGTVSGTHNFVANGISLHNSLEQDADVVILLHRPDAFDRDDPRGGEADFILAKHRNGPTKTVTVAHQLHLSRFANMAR

Protein RecA = biological target: T3, Protein RecA (Mycobacterium tuberculosis, UniProt P9WHJ3); assay: Fluorescence Cell-Free Homogeneous Dose Retest to Identify Inhibitors of RecA-Intein Splicing Activity. [Related pubchem assays (depositor defined):AID2097, AID2223, AID489010, AID492950]; type: functional
T3 sequence (P9WHJ3 whole entry): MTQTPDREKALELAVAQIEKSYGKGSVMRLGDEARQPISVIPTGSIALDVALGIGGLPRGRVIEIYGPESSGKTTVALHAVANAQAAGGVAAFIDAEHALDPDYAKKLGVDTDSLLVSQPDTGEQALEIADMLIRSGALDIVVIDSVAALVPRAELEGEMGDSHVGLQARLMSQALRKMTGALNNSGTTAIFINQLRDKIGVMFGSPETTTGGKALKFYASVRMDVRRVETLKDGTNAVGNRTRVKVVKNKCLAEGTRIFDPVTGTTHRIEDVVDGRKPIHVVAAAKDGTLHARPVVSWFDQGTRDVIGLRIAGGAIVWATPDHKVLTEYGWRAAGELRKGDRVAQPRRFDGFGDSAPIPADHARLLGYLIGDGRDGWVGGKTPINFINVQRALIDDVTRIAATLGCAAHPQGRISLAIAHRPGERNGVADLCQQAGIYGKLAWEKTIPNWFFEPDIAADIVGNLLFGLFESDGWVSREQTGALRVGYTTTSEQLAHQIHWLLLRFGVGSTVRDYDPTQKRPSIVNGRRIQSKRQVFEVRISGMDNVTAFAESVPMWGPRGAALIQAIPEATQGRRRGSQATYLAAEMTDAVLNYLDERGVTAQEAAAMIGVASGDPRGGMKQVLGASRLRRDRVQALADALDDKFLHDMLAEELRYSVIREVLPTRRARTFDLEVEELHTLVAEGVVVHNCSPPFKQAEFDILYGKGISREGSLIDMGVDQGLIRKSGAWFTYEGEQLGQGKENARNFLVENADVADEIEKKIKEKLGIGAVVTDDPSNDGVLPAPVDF

[3] = Trypanosoma cruzi growth suppression in host cells – NIH3T3 host cells, beta-gal luminescence, confirmation (AID 2044); type: functional, cell-based;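 note: intracellular parasites grown in NIH/3T3 mouse fibroblasts as host cells; luminescent beta-galactosidase reporter signal from transgenic T. cruzi replicating inside host cells; inhibitors lower the luminescence signal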
[4] = NIH3T3 cell viability loss – ATP luminescence, mouse fibroblasts, counter-screen, dose response (AID 2010); type: functional, cell-based;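 note: cells exposed to compound for about 90 hours before reading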
[5] = biological target: T4, Microphthalmia-associated transcription factor (Homo sapiens, UniProt O75030); assay: reducers of TRPM1 reporter luminescence, concentration series – cell-based, SK-MEL-5, cherry-picked, set 3, MITF inhibitor project, dose response (AID 493073); type: functional;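 note: SK-MEL-5 melanoma cells with luciferase driven by the MITF target TRPM1 promoter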
T4 sequence (O75030 whole entry): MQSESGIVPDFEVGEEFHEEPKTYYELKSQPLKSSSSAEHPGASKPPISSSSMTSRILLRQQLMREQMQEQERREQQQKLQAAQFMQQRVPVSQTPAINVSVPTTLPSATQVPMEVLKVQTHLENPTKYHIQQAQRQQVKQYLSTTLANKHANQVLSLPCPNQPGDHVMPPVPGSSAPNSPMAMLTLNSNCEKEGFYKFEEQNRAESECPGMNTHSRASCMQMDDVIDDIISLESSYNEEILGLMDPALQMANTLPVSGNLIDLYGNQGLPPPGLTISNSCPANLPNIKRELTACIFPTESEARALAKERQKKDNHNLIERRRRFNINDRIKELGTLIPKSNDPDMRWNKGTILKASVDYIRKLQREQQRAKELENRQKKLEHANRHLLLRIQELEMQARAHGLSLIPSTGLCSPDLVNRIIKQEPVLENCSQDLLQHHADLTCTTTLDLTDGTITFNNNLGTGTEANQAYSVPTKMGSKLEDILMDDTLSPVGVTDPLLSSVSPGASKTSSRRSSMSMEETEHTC

[6] = biological target: T1, Heat shock factor protein 1; assay: decrease of HSF1-responsive luciferase luminescence – cell-based, NIH3T3, dose retest, confirmation (AID 2382); type: functional;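 note: NIH3T3 fibroblasts with HSF1-driven luciferase reporter stressed by proteasome inhibitor MG132; luminescence from HSF1-driven luciferase expression after 8 hours of MG132 stress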
Paired box protein Pax-8 = Paired box protein Pax-8 (Homo sapiens, UniProt Q06710); assay: PAX8 transcriptional activity inhibition in RMG-I – RMG-I cells, luciferase, cherry-pick, dose response (AID 687027); type: functional, cell-based;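 note: luciferase reporter driven by Pax8 target thyroperoxidase promoter measured by SteadyGlo luminescence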
Chain of Paired box protein Pax-8 (Q06710 whole entry): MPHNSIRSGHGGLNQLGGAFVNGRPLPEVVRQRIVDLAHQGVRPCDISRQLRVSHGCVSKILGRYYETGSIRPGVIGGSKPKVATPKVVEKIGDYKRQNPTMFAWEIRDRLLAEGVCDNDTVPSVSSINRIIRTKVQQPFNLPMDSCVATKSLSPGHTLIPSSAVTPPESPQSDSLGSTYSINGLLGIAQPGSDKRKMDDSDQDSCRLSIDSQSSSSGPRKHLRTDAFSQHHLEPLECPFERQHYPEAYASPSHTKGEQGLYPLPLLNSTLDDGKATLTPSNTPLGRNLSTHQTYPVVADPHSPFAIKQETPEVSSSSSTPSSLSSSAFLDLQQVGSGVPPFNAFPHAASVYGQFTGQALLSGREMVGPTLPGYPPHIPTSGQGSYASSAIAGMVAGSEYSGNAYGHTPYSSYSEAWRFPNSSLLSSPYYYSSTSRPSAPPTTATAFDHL

Large T antigen = Large T antigen (Simian virus 40, UniProt P03070); type: functional, Betapolyomavirus macacae;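 note: Confirmatory-stage PubChem screen for compounds that inhibit SV40 T antigen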
Chain of Large T antigen (P03070 whole entry): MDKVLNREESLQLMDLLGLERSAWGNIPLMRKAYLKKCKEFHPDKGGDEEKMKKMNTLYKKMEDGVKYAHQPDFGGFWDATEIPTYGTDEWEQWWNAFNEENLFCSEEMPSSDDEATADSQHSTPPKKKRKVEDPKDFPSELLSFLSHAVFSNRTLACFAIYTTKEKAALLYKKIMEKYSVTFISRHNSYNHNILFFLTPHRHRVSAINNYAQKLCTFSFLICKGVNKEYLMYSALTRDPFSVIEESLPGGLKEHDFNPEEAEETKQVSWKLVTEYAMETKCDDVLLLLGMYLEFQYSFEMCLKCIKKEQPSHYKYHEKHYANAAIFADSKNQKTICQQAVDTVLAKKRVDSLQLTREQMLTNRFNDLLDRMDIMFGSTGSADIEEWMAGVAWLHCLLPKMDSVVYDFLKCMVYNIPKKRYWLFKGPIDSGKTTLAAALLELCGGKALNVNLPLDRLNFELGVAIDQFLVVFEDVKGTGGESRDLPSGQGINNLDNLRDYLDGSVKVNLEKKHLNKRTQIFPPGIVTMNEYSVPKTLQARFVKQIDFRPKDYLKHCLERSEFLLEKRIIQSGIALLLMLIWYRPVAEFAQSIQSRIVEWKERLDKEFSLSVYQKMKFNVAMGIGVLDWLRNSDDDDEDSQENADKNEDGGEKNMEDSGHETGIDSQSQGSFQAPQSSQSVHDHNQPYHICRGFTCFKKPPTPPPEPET

[7] = biological target: T5, Rac GTPase-activating protein 1 (Homo sapiens, UniProt Q9H0H5); assay: blockers of MgcRacGAP-driven Rac1 GTP hydrolysis – biochemical, ADP Hunter fluorescence, primary and confirmatory, confirmation (AID 624330); type: functional
T5 sequence (Q9H0H5 whole entry): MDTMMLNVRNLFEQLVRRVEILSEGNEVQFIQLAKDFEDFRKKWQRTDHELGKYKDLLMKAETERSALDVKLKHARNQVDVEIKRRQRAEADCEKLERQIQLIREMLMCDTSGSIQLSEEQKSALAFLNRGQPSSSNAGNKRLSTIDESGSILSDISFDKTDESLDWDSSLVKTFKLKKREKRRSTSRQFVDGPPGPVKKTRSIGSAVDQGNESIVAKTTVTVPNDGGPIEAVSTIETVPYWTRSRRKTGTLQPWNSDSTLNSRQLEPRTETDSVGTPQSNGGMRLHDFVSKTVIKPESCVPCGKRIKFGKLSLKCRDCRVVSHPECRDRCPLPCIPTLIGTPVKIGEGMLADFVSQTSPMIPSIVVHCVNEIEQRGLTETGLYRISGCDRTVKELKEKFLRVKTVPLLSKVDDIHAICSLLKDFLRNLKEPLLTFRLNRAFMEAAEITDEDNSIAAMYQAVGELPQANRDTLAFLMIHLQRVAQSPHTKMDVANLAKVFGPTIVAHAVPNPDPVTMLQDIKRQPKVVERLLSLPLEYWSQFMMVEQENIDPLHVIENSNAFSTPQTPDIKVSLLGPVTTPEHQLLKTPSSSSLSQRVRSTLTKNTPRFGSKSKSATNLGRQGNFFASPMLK

INS1 = assay: INS-1E survival protection against cytokine death – cell-based, luminescence, retest, dose response (AID 449756); type: functional; conditions: Rattus norvegicus;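 note: cell death triggered by IL-1 beta plus TNF-alpha plus IFN-gamma mixture; protective hits raise ATP signal compared with cytokine alone wells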
[8] = biological target: Luciferin 4-monooxygenase (Photinus pyralis, UniProt P08659); assay: inhibition of purified Photinus pyralis luciferase – biochemical, luminescence, dose response (AID 1891)
Chain of Luciferin 4-monooxygenase (P08659 whole entry): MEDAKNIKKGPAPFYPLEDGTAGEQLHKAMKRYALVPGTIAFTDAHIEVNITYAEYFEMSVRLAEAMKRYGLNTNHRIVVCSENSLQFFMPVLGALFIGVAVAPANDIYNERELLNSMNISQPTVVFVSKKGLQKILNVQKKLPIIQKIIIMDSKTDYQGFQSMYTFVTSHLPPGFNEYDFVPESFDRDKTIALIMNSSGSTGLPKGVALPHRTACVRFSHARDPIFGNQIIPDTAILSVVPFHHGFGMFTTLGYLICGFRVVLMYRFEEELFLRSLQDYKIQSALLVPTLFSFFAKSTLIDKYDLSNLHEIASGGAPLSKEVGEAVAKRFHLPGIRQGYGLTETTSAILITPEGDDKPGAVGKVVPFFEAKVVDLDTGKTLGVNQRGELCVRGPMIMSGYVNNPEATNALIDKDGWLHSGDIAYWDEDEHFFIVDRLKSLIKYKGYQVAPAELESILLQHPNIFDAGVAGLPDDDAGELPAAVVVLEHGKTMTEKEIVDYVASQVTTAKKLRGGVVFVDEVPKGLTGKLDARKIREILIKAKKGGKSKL

[9] = Luminescence Cell-Based Dose Confirmation HTS to Identify Inhibitors of Platelet Dense Granule Release. [Related pubchem assays: 1663 (Primary HTS), 1678 (Summary of Project)]; type: functional
Cytochrome P450 1A2 = biological target: T6, Cytochrome P450 1A2 (Homo sapiens, UniProt P05177);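 note: PubChem cytochrome P450 panel assay, CYP1A2 panel member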
T6 sequence (P05177 whole entry): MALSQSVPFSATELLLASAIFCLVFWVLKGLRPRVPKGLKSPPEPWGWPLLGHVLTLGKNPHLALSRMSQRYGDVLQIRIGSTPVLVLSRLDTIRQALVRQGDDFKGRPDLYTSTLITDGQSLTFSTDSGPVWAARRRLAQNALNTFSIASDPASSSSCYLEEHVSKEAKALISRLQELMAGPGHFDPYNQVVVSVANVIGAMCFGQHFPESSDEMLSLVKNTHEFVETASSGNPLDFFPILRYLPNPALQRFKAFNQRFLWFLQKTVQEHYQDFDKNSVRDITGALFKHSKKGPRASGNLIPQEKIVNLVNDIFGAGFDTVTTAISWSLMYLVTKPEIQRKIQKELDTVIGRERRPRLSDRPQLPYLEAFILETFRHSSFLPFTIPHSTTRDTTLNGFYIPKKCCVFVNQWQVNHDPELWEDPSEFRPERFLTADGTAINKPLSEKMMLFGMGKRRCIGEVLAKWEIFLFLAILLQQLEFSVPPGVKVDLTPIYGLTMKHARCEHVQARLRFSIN

Nonstructural protein 1 = Nonstructural protein 1 (Influenza A virus, UniProt Q194T2); type: functional, Influenza A virus (A/California/07/2009(H1N1))
Chain of Nonstructural protein 1 (Q194T2 whole entry): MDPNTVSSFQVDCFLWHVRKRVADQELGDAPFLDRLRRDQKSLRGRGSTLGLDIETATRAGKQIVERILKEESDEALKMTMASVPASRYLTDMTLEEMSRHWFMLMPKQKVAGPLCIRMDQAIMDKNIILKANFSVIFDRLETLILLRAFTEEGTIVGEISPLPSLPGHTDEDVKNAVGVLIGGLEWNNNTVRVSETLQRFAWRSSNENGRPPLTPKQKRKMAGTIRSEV

With `COc1ccc(CCNC(=O)Nc2cccc([N+](=O)[O-])c2)cc1OC` the EC50 [1] was > 260 µM (inactive).
With `CC1=NN(c2ccccc2)C(=O)C1=C(C)C` the AC50 [2] was 5.6 µM (active) and the EC50 (Protein RecA) was 2.46 µM (active).
For `CC(C)OC(=O)c1c(NC(=O)Cn2cnc([N+](=O)[O-])n2)sc2c1CCCC2`, the EC50 [3] was 0.203 µM (active), the EC50 [4] was > 60 µM (not active) and the EC50 [1] was > 260 µM (inactive).
For `C=C1CCC[C@]2(C)C[C@H]3OC(=O)C(CN4CCCCC4CO)[C@H]3CC12` (some centres undefined), the AC50 [5] was 11 µM (active).
In the case of `Cc1cccc2sc(N(CCCN(C)C)C(=O)c3nc4ccccc4s3)nc12`, the AC50 [5] is reported as 10.9 µM (active).
In the case of `CCCc1n[nH]c(O)c1C(c1ccc(Cl)cc1)C(C#N)C#N` (centres undefined), the AC50 [2] is reported as 8.44 µM (active) and the EC50 (Protein RecA) is reported as 4.14 µM (active).
For `Cc1ccc(O)c(NC(=O)CSc2n[nH]c(-c3ccccc3)n2)c1`, the EC50 [1] was 10 µM (active).
For `CSc1sc(C(=O)Nc2ccc(F)cc2F)c2c1C=CCC2`, the EC50 [1] was > 260 µM (inactive).
For `Cc1ccc(-n2cc(CNCCN3CCOC3=O)c(-c3cccc(C)c3)n2)cc1`, the EC50 [1] was > 260 µM (inactive).
For `CCC(=O)N1CCN(c2ccc(NC(=O)c3ccc([N+](=O)[O-])o3)cc2)CC1`, the EC50 [6] was > 195 µM (not active), the EC50 [3] was 5.98 µM (active) and the EC50 [4] was 7.54 µM (active). The AC50 [5] was 8.68 µM (active) and the AC50 (Paired box protein Pax-8) was 5.31 µM (active).
In the case of `CC1CN(C(=S)NC(=O)C2CCCCC2)CC(C)O1` (centres undefined), the EC50 [1] is reported as > 260 µM (inactive).
With `CN(C)c1ccc(NC2=C([N+](=O)[O-])CS(=O)(=O)C2)cc1` the IC50 (Large T antigen) was 5.71 µM (active) and the IC50 [7] was 42.7 µM (active).
For `O=c1c2ccccc2nc(SCc2nnc(-c3ccccc3Br)o2)n1Cc1ccco1`, the EC50 [1] was > 260 µM (inactive).
For `O=C(c1ccc(N2CCN(CCO)CC2)nc1)N1CCOCC1`, the AC50 [2] was > 380 µM (inactive) and the EC50 (Protein RecA) was > 380 µM (inactive).
With `C/C(CC(=O)Nc1cc(C)ccn1)=N\NC(=O)c1ccncc1` the AC50 [2] was 7.32 µM (active) and the EC50 (Protein RecA) was 4.03 µM (active).
For `O=C(N/N=C/C=C(\O)c1ccc([N+](=O)[O-])cc1)c1ccccc1`, the EC50 [3] was 2.02 µM (active), the EC50 [4] was 17.6 µM (active) and the AC50 [5] was 9.19 µM (active). The AC50 (INS1) was 1.76 µM (active).
In the case of `COc1cc(/C=N/NC(N)=O)c(Br)cc1OCC(=O)Nc1ccccc1C`, the EC50 [8] is reported as > 112 µM (not active), the EC50 [9] is reported as > 112 µM (not active) and the AC50 [5] is reported as 17.8 µM (active). The AC50 (Cytochrome P450 1A2) was 14.1 µM (inconclusive).
For `COc1cc(C(=O)NCC(=O)N/N=C/c2cccc(OC(=O)c3ccco3)c2)cc(OC)c1OC`, the AC50 [2] was 36 µM (active) and the EC50 (Protein RecA) was 16.6 µM (active).
For `O=C1C=CC(=C(c2ccc(O)cc2)c2ccc(O)cc2)C=C1` [AURIN], the IC50 (Nonstructural protein 1) was 59.1 µM (active), the AC50 [5] was 9.92 µM (active) and the AC50 (Paired box protein Pax-8) was 8.81 µM (active).
